Three compounds from patent US6706757B2, “Chroman derivatives as 5-hydroxytryptamine-6 ligands” (Wyeth, priority 2001, dated 2004) can be followed below.

Where a name gives a salt, the structure may show the parent alone.

The compound `COc1ccc(S(=O)(=O)N(C)c2ccc3c(c2)OC(CN[C@H](C)c2ccccc2)CC3)cc1OC` (stereo partly drawn) (as salt: HCl) [Example 54, 3,4-dimethoxy-N-methyl-N-[2-({[(1R)-1-phenylethyl]amino}methyl)-3,4-dihydro-2H-chromen-7-yl]benzenesulfonamide] yielded a melting point of 229 to 230 °C.

On to `C[C@@H](NCC1CCc2ccc(N(C)S(=O)(=O)c3cccc4ccccc34)cc2O1)c1ccccc1` (stereo partly drawn) (as salt: HCl) [Example 55, N-methyl-N-[2-({[(1R)-1-phenylethyl]amino}methyl)-3,4-dihydro-2H-chromen-7-yl]naphthalene-1-sulfonamide], for which the melting point fell in the range of 245 to 246 °C.

As to `C[C@@H](NCC1CCc2ccc(N(C)S(=O)(=O)c3ccc(N)cc3)cc2O1)c1ccccc1` (stereo partly drawn) (as salt: HCl) [Example 56, 4-amino-N-methyl-N-[2-({[(1R)-1-phenylethyl]amino}methyl)-3,4-dihydro-2H-chromen-7-yl]benzenesulfonamide], the melting point is 200 °C (dec.).

A word on the melting point: it is the temperature, or range, at which the solid turns liquid.
